The numbers were not newly measured in US6090828A, “5-aryleheteroarylalkyl-1,3,5-trisubstituted-1,2,4-triazole compounds for treatment of circulatory disorders” (priority 1997, dated 2000), which cites them from elsewhere.

This series concerns angiotensin II receptor. The following applies: cited from earlier work.

On to `CNCC(=O)N[C@@H](CCCN=C(N)N)C(=O)N[C@H](C(=O)N[C@@H](Cc1ccc(O)cc1)C(=O)N[C@H](C(=O)N[C@@H](Cc1cnc[nH]1)C(=O)N1CCC[C@H]1C(=O)N[C@@H](C)C(=O)O)C(C)C)C(C)C` [Saralasin], for which the residual agonist activity entry (background statement) is “significant residual agonist activity”. As for `CCCCc1nc(Cl)c(CC(=O)O)n1Cc1ccccc1[N+](=O)[O-]` [2-butyl-4-choloro-1-(2-nitrobenzyl)imidazole-5-acetic acid], the “angiotensin II antagonist activity” value (binding experiments, functional assays and in vivo tests, literature) is “specific competitive angiotensin II antagonist activity”.
